Consider three compounds from PubChem BioAssay (NCI).

Some test systems named below: ACHN renal; DLD-1 colon; HCT-15 colon; HL-60(TB) leukemia; HOP-18 NSCLC; LOX IMVI melanoma; M14 melanoma; M19-MEL melanoma; OVCAR-5 ovarian; SNB-19 CNS; SNB-78 CNS; UACC-62 melanoma; XF 498 CNS; T-47D breast.
Assay in all cases: DTP human tumour cell line panel, 48 h

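Values below derive from 48-hour exposures of cells grown in 96-well plates, with endpoints linearly interpolated between the two concentrations bracketing the appropriate inhibition level. TGI: total growth inhibition.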

What is called TGI is the concentration giving total growth inhibition. Higher therefore signals less potent growth arrest.

As to `COc1ccc2c(c1)[n+]([O-])c(/C(C)=N/NC(=O)c1ccccc1O)c(C)[n+]2[O-]`, the TGI with ACHN renal, in the assay on DLD-1 colon, in the assay with HCT-15 colon, in the assay on HL-60(TB) leukemia, with HOP-18 NSCLC and with LOX IMVI melanoma was > 100 µM throughout. Also, the TGI with M14 melanoma, in the assay on M19-MEL melanoma, with OVCAR-5 ovarian, with SNB-19 CNS, in the assay on SNB-78 CNS and with UACC-62 melanoma was > 100 µM throughout. Also, in the assay with XF 498 CNS, the TGI is > 100 µM.
For the compound `CCOC(=O)C1SC(=Nc2ccc(Cl)cc2Cl)N=C1C` (stereo not given), the TGI in the assay on ACHN renal, with DLD-1 colon, in the assay on HCT-15 colon, with HL-60(TB) leukemia, with HOP-18 NSCLC and with LOX IMVI melanoma was > 100 µM throughout. Moreover, the TGI in the assay with M14 melanoma, in the assay on M19-MEL melanoma, in the assay with OVCAR-5 ovarian, in the assay on SNB-19 CNS, in the assay on SNB-78 CNS and in the assay with UACC-62 melanoma was > 100 µM throughout. In the assay with XF 498 CNS, the TGI came to 94.1 µM.
For the compound `CC(=O)NC1COC(COC(=O)CCCCCCCCCCNC(=O)c2ccc([N+](=O)[O-])c3c(=O)c4ccccc4[nH]c23)C(O)C1OC(C)C(=O)NC(C(=O)NC(CCC(N)=O)C(=O)OCc1ccccc1)C(C)C` (stereo not given), the TGI with ACHN renal was found to be 39.4 µM; in the assay on DLD-1 colon, 10.1 µM; with HCT-15 colon, 50.2 µM; in the assay on HL-60(TB) leukemia it was 6.72 µM; in the assay on HOP-18 NSCLC it was 43.9 µM; in the assay with LOX IMVI melanoma, 30.1 µM. For the same compound, the total growth inhibition concentration (TGI) in the assay with M14 melanoma was 66.3 µM; in the assay on M19-MEL melanoma it was 10.7 µM; in the assay on OVCAR-5 ovarian, > 81.5 µM; in the assay on SNB-19 CNS, 18.5 µM; with SNB-78 CNS it was > 22.8 µM; in the assay on T-47D breast, 13 µM. The figures for the TGI in the assay on UACC-62 melanoma and in the assay on XF 498 CNS were 58.9 µM and 34.8 µM, respectively.
